Experiments:
[1] = target: Human plasma kallikrein (Homo sapiens (Human), UniProt P03952); assay: Kallikrein Assay (fluorogenic substrate Acetyl-K-P-R-AFC); format: biochemical; settings: Plasma Kallikrein (PKal)
In short: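 Ki is derived from IC50 with the Cheng-Prusoff equation, and IC50 from the inflection point of a four-parameter logistic curve. The rate of AFC release is read with 0.5 nM purified enzyme and […] substrate at room temperature or 37 °C.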

[2] = target: human Factor XIa (Homo sapiens (Human), UniProt P03951); assay: Factor XIa Assay (fluorogenic substrate GPR-AFC); format: biochemical; settings: Factor XIa (FXIa)
human Factor XIa, sequence (P03951 388-625 limits assumed): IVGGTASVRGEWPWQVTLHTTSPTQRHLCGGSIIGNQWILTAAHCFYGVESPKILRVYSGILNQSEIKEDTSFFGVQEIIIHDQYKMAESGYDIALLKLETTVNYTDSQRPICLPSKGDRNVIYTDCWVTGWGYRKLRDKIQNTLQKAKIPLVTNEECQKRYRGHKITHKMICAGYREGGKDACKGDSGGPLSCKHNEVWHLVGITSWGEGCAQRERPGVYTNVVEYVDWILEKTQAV
human Factor XIa, sequence (P03951 19-387 partner limits assumed): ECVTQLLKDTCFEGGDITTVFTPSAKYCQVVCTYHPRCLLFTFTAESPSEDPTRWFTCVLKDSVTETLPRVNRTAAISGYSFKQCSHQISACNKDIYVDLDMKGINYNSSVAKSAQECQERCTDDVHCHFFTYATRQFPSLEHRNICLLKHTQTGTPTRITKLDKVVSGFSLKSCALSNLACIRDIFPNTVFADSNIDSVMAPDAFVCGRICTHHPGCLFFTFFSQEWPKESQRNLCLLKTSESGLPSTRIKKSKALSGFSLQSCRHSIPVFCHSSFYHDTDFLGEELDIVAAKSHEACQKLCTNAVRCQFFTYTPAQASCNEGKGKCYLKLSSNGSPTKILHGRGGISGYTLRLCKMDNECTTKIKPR

Human plasma kallikrein, sequence (P03952 391-638): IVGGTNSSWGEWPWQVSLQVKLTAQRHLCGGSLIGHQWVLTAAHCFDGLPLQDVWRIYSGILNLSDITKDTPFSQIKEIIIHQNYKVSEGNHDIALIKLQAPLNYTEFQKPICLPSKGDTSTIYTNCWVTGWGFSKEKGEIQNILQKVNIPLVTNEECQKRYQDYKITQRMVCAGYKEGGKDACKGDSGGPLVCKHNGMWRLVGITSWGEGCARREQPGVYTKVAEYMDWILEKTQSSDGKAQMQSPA
Human plasma kallikrein, sequence (P03952 20-390 partner): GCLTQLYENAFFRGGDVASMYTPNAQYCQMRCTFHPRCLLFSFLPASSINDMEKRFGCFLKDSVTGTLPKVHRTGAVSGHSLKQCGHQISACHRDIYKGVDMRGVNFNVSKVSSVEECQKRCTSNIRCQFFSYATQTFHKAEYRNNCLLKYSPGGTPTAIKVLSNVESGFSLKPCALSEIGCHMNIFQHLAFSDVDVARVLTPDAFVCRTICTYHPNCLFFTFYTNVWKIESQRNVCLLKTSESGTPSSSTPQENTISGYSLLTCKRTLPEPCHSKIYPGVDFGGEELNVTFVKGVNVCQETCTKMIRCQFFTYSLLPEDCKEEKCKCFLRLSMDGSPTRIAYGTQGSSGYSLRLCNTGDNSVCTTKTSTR

SMILES | IC50 [1] | IC50 [2]
CC(c1cnc(N2C[C@H]3C[C@H]3C2=O)cn1)n1cc(NC(=O)c2cncc(-c3c(C(F)F)ccc(Cl)c3F)n2)cn1 (single isomer, unassigned) [Example 20, 6-(3-Chloro-6-(difluoromethyl)-2-fluorophenyl)-N-(1-((S or R)-1-(5-((1R,5S)-2-oxo-3-azabicyclo[3.1.0]hexan-3-yl)pyrazin-2-yl)ethyl)-1H-pyrazol-4-yl)pyrazine-2-carboxamide] | 28.5 nM | > 10000 nM
C[C@@H](c1cnc(N2C[C@H]3C[C@H]3C2=O)nc1)n1cc(NC(=O)c2nc(-c3c(C(F)F)ccc(Cl)c3F)cnc2COC(C)(C)C)cn1 [Example 192, 3-(tert-Butoxymethyl)-6-(3-chloro-6-(difluoromethyl)-2-fluorophenyl)-N-(1-((S)-1-(2-((1R,5S)-2-oxo-3-azabicyclo[3.1.0]hexan-3-yl)pyrimidin-5-yl)ethyl)-1H-pyrazol-4-yl)pyrazine-2-carboxamide] | 4.4 nM | 6830 nM
Cc1ncc(-c2c(C(F)F)ccc(Cl)c2F)nc1C(=O)Nc1cnn(C(C)c2cnc(N3C[C@H]4C[C@H]4C3=O)c3c2OC(F)(F)O3)c1 (single isomer, unassigned) [Example 247, 6-(3-Chloro-6-(difluoromethyl)-2-fluorophenyl)-N-(1-((S or R)-1-(2,2-difluoro-4-((1R,5S)-2-oxo-3-azabicyclo[3.1.0]hexan-3-yl)-[1,3]dioxolo[4,5-c]pyridin-7-yl)ethyl)-1H-pyrazol-4-yl)-3-methylpyrazine-2-carboxamide] | 0.8 nM | 9240 nM
CC(c1cnc(N2C[C@H]3C[C@H]3C2=O)c2c1CCC2)n1cc(NC(=O)c2cncc(-c3c(C(F)F)ccc(Cl)c3F)n2)cn1 (single isomer, unassigned) [Example 141, 6-(3-Chloro-6-(difluoromethyl)-2-fluorophenyl)-N-(1-((S or R)-1-(1-((1R,5S)-2-oxo-3-azabicyclo[3.1.0]hexan-3-yl)-6,7-dihydro-5H-cyclopenta[c]pyridin-4-yl)ethyl)-1H-pyrazol-4-yl)pyrazine-2-carboxamide] | 1.1 nM | 906 nM
Cc1nc(N2C[C@H]3C[C@H]3C2=O)ncc1C(C)n1cc(NC(=O)c2nc(-c3c(C(F)F)ccc(Cl)c3F)cnc2CO)cn1 (single isomer, unassigned) [Example 194, 6-(3-Chloro-6-(difluoromethyl)-2-fluorophenyl)-3-(hydroxymethyl)-N-(1-((S or R)-1-(4-methyl-2-((1R,5S)-2-oxo-3-azabicyclo[3.1.0]hexan-3-yl)pyrimidin-5-yl)ethyl)-1H-pyrazol-4-yl)pyrazine-2-carboxamide] | 0.5 nM | 262 nM
COc1ncc(-c2c(OC(F)F)ccc(Cl)c2F)nc1C(=O)Nc1cnn(C(C)c2cnc(N3C[C@H]4C[C@H]4C3=O)c(C)n2)c1 (single isomer, unassigned) [Example 240, 6-(3-Chloro-6-(difluoromethoxy)-2-fluorophenyl)-3-methoxy-N-(1-((R or S)-1-(6-methyl-5-((1R,5S)-2-oxo-3-azabicyclo[3.1.0]hexan-3-yl)pyrazin-2-yl)ethyl)-1H-pyrazol-4-yl)pyrazine-2-carboxamide] | 0.4 nM | 985 nM
Cc1nc(C(C)n2cc(NC(=O)c3cncc(-c4c(OC(F)F)ccc(Cl)c4F)n3)cn2)cnc1N1C[C@H]2C[C@H]2C1=O (single isomer, unassigned) [Example 17, 6-(3-Chloro-6-(difluoromethoxy)-2-fluorophenyl)-N-(1-((R or S)-1-(6-methyl-5-((1R,5S)-2-oxo-3-azabicyclo[3.1.0]hexan-3-yl)pyrazin-2-yl)ethyl)-1H-pyrazol-4-yl)pyrazine-2-carboxamide] | 0.7 nM | 1740 nM
Cc1nc(N2C[C@H]3C[C@H]3C2=O)ncc1[C@H](CO)n1cc(NC(=O)c2cncc(-c3c(C(F)F)ccc(Cl)c3F)n2)cn1 [Example 160, 6-(3-Chloro-6-(difluoromethyl)-2-fluorophenyl)-N-(1-((R)-2-hydroxy-1-(4-methyl-2-((1R,5S)-2-oxo-3-azabicyclo[3.1.0]hexan-3-yl)pyrimidin-5-yl)ethyl)-1H-pyrazol-4-yl)pyrazine-2-carboxamide] | 249 nM | > 10000 nM
CC(c1cnc(N2C[C@H]3C[C@H]3C2=O)c(F)c1)n1cc(NC(=O)c2nc(-c3c(C(F)F)ccc(Cl)c3F)cnc2CO)cn1 (single isomer, unassigned) [Example 205, 6-(3-Chloro-6-(difluoromethyl)-2-fluorophenyl)-N-(1-((S or R)-1-(5-fluoro-6-((1R,5S)-2-oxo-3-azabicyclo[3.1.0]hexan-3-yl)pyridin-3-yl)ethyl)-1H-pyrazol-4-yl)-3-(hydroxymethyl)pyrazine-2-carboxamide] | 0.3 nM | 389 nM
O=C(Nc1cnn(Cc2cnc(N3C[C@H]4C[C@H]4C3=O)c(F)c2)c1)c1cncc(-c2c(C(F)F)ccc(Cl)c2F)n1 [Example 50, 6-(3-Chloro-6-(difluoromethyl)-2-fluorophenyl)-N-(1-((5-fluoro-6-((1R,5S)-2-oxo-3-azabicyclo[3.1.0]hexan-3-yl)pyridin-3-yl)methyl)-1H-pyrazol-4-yl)pyrazine-2-carboxamide] | 5.5 nM | 2120 nM
CC(c1cnc(N2C[C@H]3C[C@H]3C2=O)c2c1OC(F)(F)O2)n1cc(NC(=O)c2cncc(-c3c(C(F)F)ccc(Cl)c3F)n2)cn1 (single isomer, unassigned) [Example 248, 6-(3-Chloro-6-(difluoromethyl)-2-fluorophenyl)-N-(1-((R or S)-1-(2,2-difluoro-4-((1R,5S)-2-oxo-3-azabicyclo[3.1.0]hexan-3-yl)-[1,3]dioxolo[4,5-c]pyridin-7-yl)ethyl)-1H-pyrazol-4-yl)pyrazine-2-carboxamide] | 22.3 nM | > 10000 nM
Cc1nc(C(C)n2cc(NC(=O)c3nc(-c4c(C(F)F)ccc(Cl)c4F)cnc3C(F)F)cn2)cnc1N1C[C@H]2C[C@H]2C1=O (single isomer, unassigned) [Example 101, 6-(3-Chloro-6-(difluoromethyl)-2-fluorophenyl)-3-(difluoromethyl)-N-(1-((R or S)-1-(6-methyl-5-((1R,5S)-2-oxo-3-azabicyclo[3.1.0]hexan-3-yl)pyrazin-2-yl)ethyl)-1H-pyrazol-4-yl)pyrazine-2-carboxamide] | 0.6 nM | 3950 nM
Cc1ncc(-c2c(C(F)F)ccc(Cl)c2F)nc1C(=O)Nc1cnn([C@H](C)c2cnc(N3C[C@H]4C[C@H]4C3=O)c(N)c2)c1 [Example 190] | 0.7 nM | 1040 nM
Cc1nc(N2C[C@H]3C[C@H]3C2=O)ncc1C(C)n1cc(NC(=O)c2nc(-c3c(C(F)F)ccc(Cl)c3F)cnc2C)cn1 (single isomer, unassigned) [Example 42] | 0.7 nM | 1520 nM
Cc1ncc(-c2c(C(F)F)ccc(Cl)c2F)nc1C(=O)Nc1cnn(C(C)c2ncc(N3C[C@H]4C[C@H]4C3=O)c(C)c2F)c1 (single isomer, unassigned) [Example 244, 6-(3-Chloro-6-(difluoromethyl)-2-fluorophenyl)-N-(1-((R or S)-1-(3-fluoro-4-methyl-5-((1R,5S)-2-oxo-3-azabicyclo[3.1.0]hexan-3-yl)pyridin-2-yl)ethyl)-1H-pyrazol-4-yl)-3-methylpyrazine-2-carboxamide] | 46.8 nM | > 10000 nM
